Patent US20090022803A1, “Oral Formulations For Delivery of Catecholic Butanes Including Ndga Compounds” (priority 2005, published 2009)

Experiments:
[1] = Oral fed/fasted IV/oral pharmacokinetic comparison of M4N formulations, single 75 mg/kg dose; details: dogs, single 75 mg/kg oral or IV
[2] = dog, in vivo, iv, 75 mg/kg
[3] = 40 mg/mL M4N/PEG 300 stability, visual appearance; assay type: physicochemical; details: for Visual Appearance: 40 mg/mL M4N/PEG 300
Procedure: The stability of 40 mg/mL M4N dissolved in 100% PEG 300 was evaluated up to 24 hours incubation at 30° C., 45° C. and 60° C. A stock 40 mg/mL M4N in PEG 300 was prepared at 60° C., following the procedure set forth in Example 18. Subsequently, aliquots were removed and incubated at the appropriate temperature. Samples were rotated at 450 rpm during the entire course of incubation. Visual observations and RP-HPLC data were collected throughout. […] The formation of crystals coincided with a loss of soluble M4N (Table 30). The 40 mg/mL M4N/PEG 300 samples incubated at 45° C. and 60° C. were stable after 24 hours incubation as assessed by visual observations and RP-HPLC analysis (Tables 29 and 30).

[4] = Oral (gavage) repeated dose pharmacokinetic study of M4N in ten excipient formulations; details: rat, in vivo, 500 mg/kg
Procedure: The purpose of this study was to provide information on pharmacokinetics of a 500 mg/kg dose of M4N in ten different excipient formulations. […] Crl:(CD)SD male and female rats were assigned to ten dosage groups, five rats per sex per group. Samples were prepared having carriers as follows that were administered to the following groups of subjects:
Each formulation of M4N was administered orally via gavage on three occasions. The concentration of the M4N was 60 mg/mL administered at a dosage volume 8.33 mL/kg, based on the most recent body weight. The rats were given the first dose (day 1 of study) after being fasted overnight followed by a 72 hour washout (recovery) period. On day 5 of study (DS 5), the second dose of test article was administered to non-fasted rats followed by a one week washout (recovery) period. On DS 6, the rats were placed on a high fat diet (approximately 10% fat content versus approximately 5% in a standard diet). […] These observations were also recorded once daily on non dosing days and during the post dosage period. Body weights were recorded at least weekly during the acclimation period, daily during the dosage and at sacrifice terminal weight. Feed consumption values were recorded weekly during the dosage period and at sacrifice (feed left value). […] The time of each blood collection was recorded in the raw data. […]

[5] = M4N stability in HP-β-CD/PEG 300 buffer solutions at 60° C., RP-HPLC and pH; assay type: physicochemical; details: for M4N stability: M4N: 25% PEG300
Procedure: The stability of 10 mg/mL M4N (prepared in a ratio of 75:25 40% HP-β-CD: 40 mg/mL M4N PEG 300) in 15 mM buffer solutions was evaluated following incubation at 60° C.
2.0 g HP-β-CD was weighed into 5 mL volumetric flasks on an OHAUS Analytical Plus Balance. 1 mL of a 100 mM buffer solution was added to each flask. Each sample was q.s. to 5 mL with WFI.
750 μL 40% HP-β-CD buffered solution was placed in 1.5 mL polypropylene microtubes. […] After gentle inversion of the sample tubes, the pH of each solution was measured using a Orion, Model 420A pH meter. An initial aliquot was removed for RP-HPLC analysis. Test samples were then placed in a Precision 60° C. incubator. The M4N stability was evaluated by RP-HPLC. At each time point, the samples were centrifuged for 2 minutes at 13,000 rpm to pellet any solid M4N.

COc1ccc(C[C@@H](C)[C@@H](C)Cc2ccc(OC)c(OC)c2)cc1OC [Formulation M4N, meso-1,4-bis(3,4-dimethoxyphenyl)-2,3-dimethylbutane]
Clear: Visual Appearance ([3]; 30° C., 2 hours) | Visual Appearance ([3]; 30° C., 4 hours) | Visual Appearance ([3]; 45° C., 2 hours) | Visual Appearance ([3]; 45° C., 4 hours) | Visual Appearance ([3]; 45° C., 6 hours) | Visual Appearance ([3]; 45° C., 24 hours) | Visual Appearance ([3]; 60° C., 2 hours) | Visual Appearance ([3]; 60° C., 4 hours) | Visual Appearance ([3]; 60° C., 6 hours) | Visual Appearance ([3]; 60° C., 24 hours)
9.9 mg/mL: M4N stability: M4N ([5]; WFI, 30% HP-β-CD, 60° C., 6 days)
less than 0.1%: M4N impurities, share of the total peak area ([5]; HP-β-CD/PEG 300 buffer solutions, 60° C.)
9.7 mg/mL: M4N stability: M4N ([5]; 15 mM Acetate, pH 5 30% HP-β-CD, 60° C., 10 days) | M4N stability: M4N ([5]; 15 mM Acetate, pH 6 30% HP-β-CD, 60° C., 6 days) | M4N stability: M4N ([5]; 15 mM Acetate, pH 6 30% HP-β-CD, 60° C., 10 days) | M4N stability: M4N ([5]; 15 mM Borate, pH 10 30% HP-β-CD, 60° C., 6 days) | M4N stability: M4N ([5]; 15 mM Phosphate, pH 3 30% HP-β-CD, 60° C., 10 days) | M4N stability: M4N ([5]; 15 mM Phosphate, pH 4 30% HP-β-CD, 60° C., 10 days) | M4N stability: M4N ([5]; 15 mM Phosphate, pH 7 30% HP-β-CD, 60° C., 6 days) | M4N stability: M4N ([5]; 15 mM Phosphate, pH 7 30% HP-β-CD, 60° C., 10 days) | M4N stability: M4N ([5]; 15 mM Phosphate, pH 7 30% HP-β-CD, 60° C., 14 days) | M4N stability: M4N ([5]; 15 mM Phosphate, pH 8 30% HP-β-CD, 60° C., 6 days) | M4N stability: M4N ([5]; 15 mM Phosphate, pH 9 30% HP-β-CD, 60° C., 6 days) | M4N stability: M4N ([5]; 15 mM Phosphate, pH 9 30% HP-β-CD, 60° C., 14 days) | M4N stability: M4N ([5]; WFI, 30% HP-β-CD, 60° C., 10 days)
10.2 mg/mL: M4N stability: M4N ([5]; 15 mM Acetate, pH 5 30% HP-β-CD, 60° C., 2 days) | M4N stability: M4N ([5]; 15 mM Phosphate, pH 9 30% HP-β-CD, 60° C., 2 days)
10.6 mg/mL: M4N stability: M4N ([5]; 15 mM Acetate, pH 5 30% HP-β-CD, 60° C., 0 days) | M4N stability: M4N ([5]; 15 mM Phosphate, pH 8 30% HP-β-CD, 60° C., 0 days)
10.3 mg/mL: M4N stability: M4N ([5]; 15 mM Borate, pH 11 30% HP-β-CD, 60° C., 2 days) | M4N stability: M4N ([5]; 15 mM Phosphate, pH 3 30% HP-β-CD, 60° C., 0 days) | M4N stability: M4N ([5]; 15 mM Phosphate, pH 7 30% HP-β-CD, 60° C., 2 days)
slight decrease: change in M4N concentration ([5]; 10 mg/mL M4N in HP-β-CD/PEG 300 buffer solutions, 14 day incubation at 60° C.)
9.8 mg/mL: M4N stability: M4N ([5]; 15 mM Borate, pH 11 30% HP-β-CD, 60° C., 6 days) | M4N stability: M4N ([5]; 15 mM Phosphate, pH 8 30% HP-β-CD, 60° C., 10 days) | M4N stability: M4N ([5]; 15 mM Phosphate, pH 9 30% HP-β-CD, 60° C., 10 days)
Many tiny: Visual Appearance ([3]; 30° C., 24 hours)
always higher: Blood levels on high fat diet versus standard diet or fasting [4]
10.5 mg/mL: M4N stability: M4N ([5]; 15 mM Acetate, pH 6 30% HP-β-CD, 60° C., 0 days) | M4N stability: M4N ([5]; 15 mM Borate, pH 10 30% HP-β-CD, 60° C., 0 days) | M4N stability: M4N ([5]; 15 mM Borate, pH 11 30% HP-β-CD, 60° C., 0 days) | M4N stability: M4N ([5]; 15 mM Phosphate, pH 4 30% HP-β-CD, 60° C., 0 days) | M4N stability: M4N ([5]; 15 mM Phosphate, pH 7 30% HP-β-CD, 60° C., 0 days)
9.4 mg/mL: M4N stability: M4N ([5]; 15 mM Borate, pH 11 30% HP-β-CD, 60° C., 14 days)
9.5 mg/mL: M4N stability: M4N ([5]; 15 mM Borate, pH 11 30% HP-β-CD, 60° C., 10 days)
even more crystals: visual observation ([3]; 40 mg/mL M4N/PEG 300, 24 hours at 30° C.)
10.4 mg/mL: M4N stability: M4N ([5]; 15 mM Phosphate, pH 8 30% HP-β-CD, 60° C., 2 days) | M4N stability: M4N ([5]; 15 mM Phosphate, pH 9 30% HP-β-CD, 60° C., 0 days) | M4N stability: M4N ([5]; WFI, 30% HP-β-CD, 60° C., 0 days)
Few tiny: Visual Appearance ([3]; 30° C., 6 hours)
9.6 mg/mL: M4N stability: M4N ([5]; 15 mM Acetate, pH 5 30% HP-β-CD, 60° C., 6 days) | M4N stability: M4N ([5]; 15 mM Acetate, pH 5 30% HP-β-CD, 60° C., 14 days) | M4N stability: M4N ([5]; 15 mM Acetate, pH 6 30% HP-β-CD, 60° C., 14 days) | M4N stability: M4N ([5]; 15 mM Borate, pH 10 30% HP-β-CD, 60° C., 10 days) | M4N stability: M4N ([5]; 15 mM Borate, pH 10 30% HP-β-CD, 60° C., 14 days) | M4N stability: M4N ([5]; 15 mM Phosphate, pH 3 30% HP-β-CD, 60° C., 6 days) | M4N stability: M4N ([5]; 15 mM Phosphate, pH 3 30% HP-β-CD, 60° C., 14 days) | M4N stability: M4N ([5]; 15 mM Phosphate, pH 4 30% HP-β-CD, 60° C., 6 days) | M4N stability: M4N ([5]; 15 mM Phosphate, pH 4 30% HP-β-CD, 60° C., 14 days) | M4N stability: M4N ([5]; 15 mM Phosphate, pH 8 30% HP-β-CD, 60° C., 14 days) | M4N stability: M4N ([5]; WFI, 30% HP-β-CD, 60° C., 14 days)
10.1 mg/mL: M4N stability: M4N ([5]; 15 mM Acetate, pH 6 30% HP-β-CD, 60° C., 2 days) | M4N stability: M4N ([5]; 15 mM Borate, pH 10 30% HP-β-CD, 60° C., 2 days) | M4N stability: M4N ([5]; 15 mM Phosphate, pH 3 30% HP-β-CD, 60° C., 2 days) | M4N stability: M4N ([5]; 15 mM Phosphate, pH 4 30% HP-β-CD, 60° C., 2 days)
Little if any changes: change in apparent sample pH ([5]; incubation at 60° C. up to 14 days)
All animals survived: survival [1]
tiny crystals: visual observation ([3]; 40 mg/mL M4N/PEG 300, 6 hours at 30° C.)
diarrhea, emesis, and ataxia: Clinical observations [2]
